Experimental data from ChEMBL document CHEMBL3045856, “Synthesis antimicrobial and anticancer activity of N-arylmethylidene-piperazine-1-carbothiohydrazide” (Med Chem Res, 2013).

Tests used:
[1] = system: HL-60; test: Anticancer activity against Homo sapiens (human) HL60 cells after 48 hr by CC108 microcell counter analysis; assay type: functional, cell-based; conditions: HL-60, 48 h
[2] = system: HBL-100; test: Anticancer activity against Homo sapiens (human) HBL100 cells after 72 hr by MTT assay; assay type: functional, cell-based; conditions: HBL-100, 72 h
[3] = system: Aspergillus niger; test: Antimicrobial activity against Aspergillus niger assessed as growth inhibition after 24 hr by cup plate method; assay type: functional, organism-based
[4] = system: Staphylococcus aureus; test: Antimicrobial activity against Staphylococcus aureus NCIM 2079 assessed as growth inhibition after 24 hr by serial double dilution method; assay type: functional, organism-based; conditions: NCIM 2079, 24 h
[5] = system: Escherichia coli; test: Antimicrobial activity against Escherichia coli NCIM 2068 assessed as growth inhibition after 24 hr by serial double dilution method; assay type: functional, organism-based; conditions: NCIM 2068, 24 h
[6] = system: HBL-100; test: Ratio of compound IC50 to methotrexate IC50 for Homo sapiens (human) HBL100 cells after 72 hr by MTT assay; assay type: functional
[7] = system: Vibrio cholerae; test: Antimicrobial activity against Vibrio cholerae assessed as growth inhibition after 24 hr by cup-plate method; assay type: functional, organism-based
[8] = system: Candida albicans; test: Antimicrobial activity against Candida albicans assessed as growth inhibition after 24 hr by serial double dilution method; assay type: functional, organism-based
[9] = system: Pseudomonas aeruginosa; test: Antimicrobial activity against Pseudomonas aeruginosa NCIM 2967 assessed as growth inhibition after 24 hr by serial double dilution method; assay type: functional, organism-based; conditions: NCIM 2967, 24 h
[10] = system: Bacillus subtilis; test: Antimicrobial activity against Bacillus subtilis NCIM 2921 assessed as growth inhibition after 24 hr by serial double dilution method; assay type: functional, organism-based; conditions: NCIM 2921, 24 h

SMILES | IC50 [1] [nM] | IC50 [2] [nM] | IC50 [3] [nM] | IC50 [4] [nM] | IC50 [5] [nM] | Ratio IC50 [6] | IC50 [7] [nM] | IC50 ([8]; read-out: IC50) [nM] | IC50 [9] [nM] | IC50 ([10]; read-out: IC50) [nM] | IC50 [10] [nM] | IC50 [8] [nM]
Oc1ccc(/C=N/NC(=S)N2CCNCC2)cc1 | 50000 | 180 | 1970 | 1700 | 1640 | 4.5 | 1660 | 1940 | 1630 | 1620 | – | –
C/C(=N\NC(=S)N1CCNCC1)c1ccc(O)cc1 | 60000 | 540 | 3550 | 1580 | 3480 | – | 1590 | 2560 | 3510 | 3490 | – | –
C/C(=N\NC(=S)N1CCNCC1)c1cccc([N+](=O)[O-])c1 | 62000 | 990 | 1560 | 860 | 570 | – | 860 | 2000 | 600 | 320 | – | –
COc1ccc(/C=N/NC(=S)N2CCNCC2)cc1 | – | 1620 | 2090 | 790 | 1590 | – | 1530 | 2150 | 1570 | 660 | – | –
S=C(N/N=C/c1ccc(Cl)cc1)N1CCNCC1 | 69000 | 1600 | 2140 | 540 | 1520 | – | 600 | 1850 | 600 | 130 | – | –
C/C(=N/NC(=S)N1CCNCC1)c1ccccc1 | – | 290 | 3760 | 2070 | 1760 | – | 1170 | 3750 | 2110 | 1780 | – | –
S=C(N/N=C/c1ccccc1)N1CCNCC1 | 63000 | 2410 | 2210 | 1360 | 3910 | – | 2230 | 1850 | 1970 | 930 | – | –
C/C(=N\NC(=S)N1CCNCC1)c1ccc(Cl)cc1 | – | 260 | 3320 | 1040 | 880 | – | 780 | 3370 | 710 | 980 | – | –
Cc1ccc(/C=N/NC(=S)N2CCNCC2)cc1 | 70000 | 800 | 3790 | 1660 | 1740 | – | 3570 | 3720 | 1700 | 1700 | – | –
S=C(NN=C(c1ccccc1)c1ccccc1)N1CCNCC1 | – | 340 | 1620 | 1330 | 3030 | – | 1380 | 1470 | 1440 | 1380 | – | –
O=C(O)c1cn(C2CC2)c2cc(N3CCNCC3)c(F)cc2c1=O [CIPROFLOXACIN] | – | – | – | 1200 | – | – | 200 | – | 50 | – | 4700 | –
OC(Cn1cncn1)(Cn1cncn1)c1ccc(F)cc1F [FLUCONAZOLE] | – | – | > 10000 | – | – | – | – | – | – | – | – | 980
CN(Cc1cnc2nc(N)nc(N)c2n1)c1ccc(C(=O)N[C@@H](CCC(=O)O)C(=O)O)cc1 [METHOTREXATE] | – | 40 | – | – | – | – | – | – | – | – | – | –
